Test results published in patent publication US12551573B2, “Compositions and methods for the targeting of PCSK9” (Scribe Therapeutics Inc., priority 2022, dated 2026).

Test system: human PCSK9 locus
Test: Secreted PCSK9 by ELISA (normalized to total cell count) in Huh7 cells transfected with mRNA and gRNA
Format: cell-based
Conditions: for Secreted PCSK9 / Percent reduction in PCSK9 secretion / Average percent reduction in PCSK9 secretion: Huh7 cells, 6 days post-transfection; for Secreted PCSK9: normalized to total cell count; for Percent reduction in PCSK9 secretion: relative to non-targeting gRNA control; for Average percent reduction in PCSK9 secretion: averaged from the two doses
Method: To assess PCSK9 secretion, seeded Huh7 cells were transfected with mRNA encoding a catalytically-active CasX 676, dXR1, or LTRP5-ADD-ZIM3 and a gRNA with scaffold 316 and spacer targeting either the B2M or PCSK9 locus. Media supernatant was harvested at 6, 18, 36, and 87 days post-transfection to assess level of PCSK9 secretion by ELISA. Levels of PCSK9 secretion were normalized to total cell count. As an additional control, PCSK9 secretion was also measured in the media supernatant harvested from wells containing untreated, naïve cells.
The following three human hepatocyte cancer cell lines were used in this experiment: HepG2 cells, Hep3B cells, and Huh7 cells. ˜15,000 cells of each cell line were seeded per well; the next day, seeded cells were transfected with mRNA encoding a catalytically-active CasX 676, dXR1, or LTRP5-ADD-ZIM3 and a gRNA with scaffold 316 and spacer targeting either the B2M or PCSK9 locus (see Table 23 for specific spacers and sequences). Media supernatant was harvested at 4 days post-transfection to assess level of PCSK9 secretion by ELISA, and levels of PCSK9 secretion were normalized to total cell count and illustrated in FIGS. 11A-11C. Culturing of treated Huh7 cells continued, and media supernatant was harvested at 14 and 27 days post-transfection for measuring PCSK9 secretion by ELISA. As an additional experimental control, PCSK9 secretion was also measured in the media supernatant harvested from wells containing untreated, naïve cells.
To assess PCSK9 secretion, seeded Huh7 cells were co-transfected with mRNA encoding for LTRP5-ADD-ZIM3 and a gRNA with scaffold 316 and spacer targeting the PCSK9 locus using Lipofectamine™ 3000. Two doses of total RNA input at a 2:1 mass ratio of mRNA to gRNA were used for screening: 50 ng mRNA: 25 ng gRNA and 25 ng mRNA: 12.5 ng gRNA. Media supernatant was harvested at 6 days post-transfection to assess level of PCSK9 secretion by ELISA (Table 74). Levels of PCSK9 secretion were normalized to total cell count. As an additional control, PCSK9 secretion was also measured in the media supernatant harvested from cells transfected with mRNA encoding for mScarlet.

[1] = 25 ng mRNA:12.5 ng gRNA, paired with LTRP5-ADD-ZIM3 mRNA
[2] = 50 ng mRNA:25 ng gRNA, paired with LTRP5-ADD-ZIM3 mRNA
[3] = paired with LTRP5-ADD-ZIM3 mRNA

Sequence | Secreted PCSK9 [1] | Percent reduction in PCSK9 secretion [1] | Secreted PCSK9 [2] | Percent reduction in PCSK9 secretion [2] | Average percent reduction in PCSK9 secretion [3] | average reduction in secreted PCSK9 levels (Huh7, LTRP5-ADD-ZIM3 mRNA + gRNA scaffold 316 (v1), 6 days, averaged from two doses (50 ng mRNA:25 ng gRNA, 25 ng:12.5 ng), relative to non-targeting gRNA) | repression of PCSK9 secretion by spacer (Huh7, paired with LTRP5-ADD-ZIM3 mRNA, scaffold 316, days 4, 14, 27)
AAACUUAGCCUGGACCCCCU (listed as RNA, chemistry not given here) [spacer 6.140, Promoter] | 59.94 ng/mL | 15.87% | 61.68 ng/mL | 25.04% | 20.45% | – | –
ACUGGCCUUAACCUGGCAGC (listed as RNA, chemistry not given here) [spacer 6.141, Promoter] | 12.58 ng/mL | 82.34% | 13.86 ng/mL | 83.16% | 82.75% | 82.75% | –
ACUUUGUUUGCAAAGACCUC (listed as RNA, chemistry not given here) [spacer 6.117, Promoter] | 98.05 ng/mL | 37.62% | 68.98 ng/mL | 16.16% | 10.73% | – | –
AGAAAGAGCAAGCCUCAUGU (listed as RNA, chemistry not given here) [spacer 6.125, Promoter] | 46.11 ng/mL | 35.28% | 24.93 ng/mL | 69.7% | 52.49% | – | –
AGAAAUCAACUGGACAAGCA (listed as RNA, chemistry not given here) [spacer 6.128, Promoter] | 62.29 ng/mL | 12.57% | 42.21 ng/mL | 48.7% | 30.63% | – | –
AGAAGAUUCAAUUUGCAAAG (listed as RNA, chemistry not given here) [spacer 6.132, Promoter] | 75.01 ng/mL | 5.29% | 56.68 ng/mL | 31.11% | 12.91% | – | –
AGCCCAGUUAGGAUUUGGGA (listed as RNA, chemistry not given here) [spacer 6.149, Promoter] | 38.33 ng/mL | 46.21% | 21.18 ng/mL | 74.26% | 60.23% | – | –
AGGAGCAGCUAGUUGGUAAG (listed as RNA, chemistry not given here) [spacer 6.139, Promoter] | 25.45 ng/mL | 64.28% | 15.03 ng/mL | 81.73% | 73.01% | – | –
AGGGAUUUAUACUACAAAGA (listed as RNA, chemistry not given here) [spacer 6.138, Promoter] | 30.87 ng/mL | 56.67% | 18.99 ng/mL | 76.92% | 66.79% | – | most effective repression of PCSK9 secretion
CAGUACGUUCCAGGCAUUCA (listed as RNA, chemistry not given here) [spacer 6.171, Intron 1] | 55.95 ng/mL | 21.46% | 52.41 ng/mL | 36.3% | 28.88% | – | –
CAGUAUCGACAGCCCUUCCA (listed as RNA, chemistry not given here) [spacer 6.124, Promoter] | 30.59 ng/mL | 57.06% | 16.54 ng/mL | 79.9% | 68.48% | – | –
CCUUUGUUUCUUCCCAGUAU (listed as RNA, chemistry not given here) [spacer 6.122, Promoter] | 86.06 ng/mL | 20.79% | 79.36 ng/mL | 3.54% | 8.63% | – | –
CCUUUUCAUCCUCCUGCCUG (listed as RNA, chemistry not given here) [spacer 6.126, Promoter] | 44.82 ng/mL | 37.09% | 23.48 ng/mL | 71.46% | 54.27% | – | –
CGCGCCCUGCUCCUGAACUU (listed as RNA, chemistry not given here) [spacer 6.160, Exon 1] | 48.67 ng/mL | 31.69% | 20.63 ng/mL | 74.93% | 53.31% | – | –
CGGGGUUGGGAGACCCGGAG (listed as RNA, chemistry not given here) [spacer 6.169, Intron 1] | 62.55 ng/mL | 12.2% | 66.39 ng/mL | 19.3% | 15.75% | – | –
CUCGGAAUCUGCUGUGCAUC (listed as RNA, chemistry not given here) [spacer 6.120, Promoter] | 47.97 ng/mL | 32.67% | 21.43 ng/mL | 73.95% | 53.31% | – | –
CUCUGCGCGUAAUCUGACGC (listed as RNA, chemistry not given here) [spacer 6.151, Promoter] | 66.42 ng/mL | 6.77% | 53.44 ng/mL | 35.05% | 20.91% | – | –
GAAGUCUCACUGGUCAGCAG (listed as RNA, chemistry not given here) [spacer 6.146, Promoter] | 20.34 ng/mL | 71.45% | 40.84 ng/mL | 50.36% | 60.9% | – | –
GAAUCAAUCCUACUGUGGAC (listed as RNA, chemistry not given here) [spacer 6.143, Promoter] | 22.33 ng/mL | 68.66% | 38.69 ng/mL | 52.97% | 60.81% | – | –
GAAUUCUAUGGUAGGCACAA (listed as RNA, chemistry not given here) [spacer 6.134, Promoter] | 57.45 ng/mL | 19.37% | 43.79 ng/mL | 46.77% | 33.07% | – | –
GAGCAGGCCAUUUCACUCGG (listed as RNA, chemistry not given here) [spacer 6.119, Promoter] | 84.54 ng/mL | 18.66% | 70.37 ng/mL | 14.47% | 2.1% | – | –
GAGUGAAAUGGCCUGCUCUG (listed as RNA, chemistry not given here) [spacer 6.118, Promoter] | 54.78 ng/mL | 23.11% | 35.5 ng/mL | 56.86% | 39.99% | – | –
GCAGCGACGUCGAGGCGCUC (listed as RNA, chemistry not given here) [spacer 6.155, Exon 1] | 56.36 ng/mL | 20.89% | 29.45 ng/mL | 64.21% | 42.55% | – | –
